# Literature values as cited in PubChem BioAssay AID1259409 (Chemical Carcinogenesis Research Information System (CCRIS), 2018).
# Tested on: rodent chemically induced tumor inhibition, incidence and multiplicity
# Test: CCRIS tumor inhibitor studies
# Settings: Route [Inhibitor]: ORAL
SMILES,"tumour outcome (control, treated, inhibition, significance) (Carcinogen: BUTYLATED HYDROXYANISOLE, 25013-16-5, Dose [Inhibitor]: 0, 0.2% IN DIET SIMULTANEOUSLY WITH CARCINOGEN FOR 104 WK (STUDY DURATION: 104 WK), Species: RAT, Strain/Sex: F344/MALE, Target Tissue: Type of Lesion: FORESTOMACH: PAPILLOMA, Dose [Carcinogen]: 2% IN DIET FOR 104 WK, Promoter: NONE USED)","tumour outcome (control, treated, inhibition, significance) (Carcinogen: BUTYLATED HYDROXYANISOLE, 25013-16-5, Dose [Inhibitor]: 0, 0.2% IN DIET SIMULTANEOUSLY WITH CARCINOGEN FOR 104 WK (STUDY DURATION: 104 WK), Species: RAT, Strain/Sex: F344/MALE, Target Tissue: Type of Lesion: FORESTOMACH: SQUAMOUS CELL CARCINOMA, Dose [Carcinogen]: 2% IN DIET FOR 104 WK, Promoter: NONE USED)","tumour outcome (control, treated, inhibition, significance) (Carcinogen: N-BUTYL-N-(4-HYDROXYBUTYL)NITROSAMINE, 3817-11-6, Dose [Inhibitor]: 0, 0.15% IN DRINKING WATER FOR 31 WK BEGINNING POST CARCINOGEN DOSE (STUDY DURATION: 36 WK), Species: RAT, Strain/Sex: F344/MALE, Target Tissue: Type of Lesion: URINARY BLADDER: CARCINOMA, Dose [Carcinogen]: 0.05% IN DRINKING WATER FOR 4 WK, Promoter: BUTYLATED HYDROXYANISOLE, 25013-16-5)","tumour outcome (control, treated, inhibition, significance) (Carcinogen: N-BUTYL-N-(4-HYDROXYBUTYL)NITROSAMINE, 3817-11-6, Dose [Inhibitor]: 0, 0.15% IN DRINKING WATER FOR 31 WK BEGINNING POST CARCINOGEN DOSE (STUDY DURATION: 36 WK), Species: RAT, Strain/Sex: F344/MALE, Target Tissue: Type of Lesion: URINARY BLADDER: PAPILLOMA, Dose [Carcinogen]: 0.05% IN DRINKING WATER FOR 4 WK, Promoter: BUTYLATED HYDROXYANISOLE, 25013-16-5)","tumour outcome (control, treated, inhibition, significance) (Carcinogen: N-BUTYL-N-(4-HYDROXYBUTYL)NITROSAMINE, 3817-11-6, Dose [Inhibitor]: 0, 0.15% IN DRINKING WATER FOR 31 WK BEGINNING POST CARCINOGEN DOSE (STUDY DURATION: 36 WK), Species: RAT, Strain/Sex: F344/MALE, Target Tissue: Type of Lesion: URINARY BLADDER: PAPILLOMA, Dose [Carcinogen]: 0.05% IN DRINKING WATER FOR 4 WK, Promoter: SODIUM BICARBONATE, 144-55-8)","tumour outcome (control, treated, inhibition, significance) (Carcinogen: N-METHYL-N'-NITRO-N-NITROSOGUANIDINE, 70-25-7, Dose [Inhibitor]: 0, 0.2% IN DIET BEGINNING 1 WK POST CARCINOGEN DOSE AND CONTINUING FOR 51 WK (STUDY DURATION: 52 WK), Species: RAT, Strain/Sex: F344/MALE, Target Tissue: Type of Lesion: FORESTOMACH: CARCINOMA, Dose [Carcinogen]: 150 MG/KG ONCE, Promoter: BUTYLATED HYDROXYANISOLE, 25013-16-5)","tumour outcome (control, treated, inhibition, significance) (Carcinogen: N-METHYL-N'-NITRO-N-NITROSOGUANIDINE, 70-25-7, Dose [Inhibitor]: 0, 0.2% IN DIET BEGINNING 1 WK POST CARCINOGEN DOSE AND CONTINUING FOR 51 WK (STUDY DURATION: 52 WK), Species: RAT, Strain/Sex: F344/MALE, Target Tissue: Type of Lesion: FORESTOMACH: PAPILLOMA, Dose [Carcinogen]: 150 MG/KG ONCE, Promoter: BUTYLATED HYDROXYANISOLE, 25013-16-5)","tumour outcome (control, treated, inhibition, significance) (Carcinogen: N-METHYL-N'-NITRO-N-NITROSOGUANIDINE, 70-25-7, Dose [Inhibitor]: 0, 0.2% IN DIET BEGINNING 1 WK POST CARCINOGEN DOSE AND CONTINUING FOR 51 WK (STUDY DURATION: 52 WK), Species: RAT, Strain/Sex: F344/MALE, Target Tissue: Type of Lesion: FORESTOMACH: SARCOMA, Dose [Carcinogen]: 150 MG/KG ONCE, Promoter: BUTYLATED HYDROXYANISOLE, 25013-16-5)","tumour outcome (control, treated, inhibition, significance) (Carcinogen: N-METHYL-N'-NITRO-N-NITROSOGUANIDINE, 70-25-7, Dose [Inhibitor]: 0, 0.2% IN DIET BEGINNING 1 WK POST CARCINOGEN DOSE AND CONTINUING FOR 51 WK (STUDY DURATION: 52 WK), Species: RAT, Strain/Sex: F344/MALE, Target Tissue: Type of Lesion: FORESTOMACH: SQUAMOUS CELL CARCINOMA, Dose [Carcinogen]: 150 MG/KG ONCE, Promoter: BUTYLATED HYDROXYANISOLE, 25013-16-5)","tumour outcome (control, treated, inhibition, significance) (Carcinogen: N-BUTYL-N-(4-HYDROXYBUTYL)NITROSAMINE, 3817-11-6, Dose [Inhibitor]: 1.5 MMOL/KG/D IN DIET FOR 108 D STARTING 1 WK POST CARCINOGEN TREATMENT (STUDY DURATION: 171 D), Species: MOUSE, Strain/Sex: BDF/MALE, Target Tissue: Type of Lesion: URINARY BLADDER: TRANSITIONAL CELL CARCINOMA, Dose [Carcinogen]: 5 MG 2/WK FOR 9 WK, Promoter: NONE USED)","tumour outcome (control, treated, inhibition, significance) (Carcinogen: N-NITROSOBIS(2-OXOPROPYL)AMINE, 60599-38-4, Dose [Inhibitor]: 0.25 MMOL/KG OF DIET FOR 357 D STARTING 2 WK AFTER LAST CARCINOGEN DOSE AND INTERRUPTED BY A 1 WK REST PERIOD OF VEHICLE, Species: HAMSTER, Strain/Sex: SYRIAN/FEMALE, Target Tissue: Type of Lesion: LIVER: HEPATOCELLULAR CARCINOMA, Dose [Carcinogen]: 20 MG/KG INJECTION GIVEN TWICE 1 WK APART, Promoter: NONE USED)","tumour outcome (control, treated, inhibition, significance) (Carcinogen: N-NITROSOBIS(2-OXOPROPYL)AMINE, 60599-38-4, Dose [Inhibitor]: 0.25 MMOL/KG OF DIET FOR 357 D STARTING 2 WK AFTER LAST CARCINOGEN DOSE AND INTERRUPTED BY A 1 WK REST PERIOD OF VEHICLE, Species: HAMSTER, Strain/Sex: SYRIAN/FEMALE, Target Tissue: Type of Lesion: PANCREAS: CARCINOMA, Dose [Carcinogen]: 20 MG/KG INJECTION GIVEN TWICE 1 WK APART, Promoter: NONE USED)","tumour outcome (control, treated, inhibition, significance) (Carcinogen: N-NITROSOBIS(2-OXOPROPYL)AMINE, 60599-38-4, Dose [Inhibitor]: 0.25 MMOL/KG OF DIET FOR 357 D STARTING 2 WK AFTER LAST CARCINOGEN DOSE AND INTERRUPTED BY A 1 WK REST PERIOD OF VEHICLE, Species: HAMSTER, Strain/Sex: SYRIAN/MALE, Target Tissue: Type of Lesion: LIVER: HEPATOCELLULAR CARCINOMA, Dose [Carcinogen]: 20 MG/KG INJECTION GIVEN TWICE 1 WK APART, Promoter: NONE USED)","tumour outcome (control, treated, inhibition, significance) (Carcinogen: N-NITROSOBIS(2-OXOPROPYL)AMINE, 60599-38-4, Dose [Inhibitor]: 0.25 MMOL/KG OF DIET FOR 357 D STARTING 2 WK AFTER LAST CARCINOGEN DOSE AND INTERRUPTED BY A 1 WK REST PERIOD OF VEHICLE, Species: HAMSTER, Strain/Sex: SYRIAN/MALE, Target Tissue: Type of Lesion: PANCREAS: CARCINOMA, Dose [Carcinogen]: 20 MG/KG INJECTION GIVEN TWICE 1 WK APART, Promoter: NONE USED)","tumour outcome (control, treated, inhibition, significance) (Carcinogen: N-NITROSOBIS(2-OXOPROPYL)AMINE, 60599-38-4, Dose [Inhibitor]: 0.5 MMOL/KG OF DIET FOR 357 D STARTING 2 WK AFTER LAST CARCINOGEN DOSE AND INTERRUPTED BY A 1 WK REST PERIOD OF VEHICLE-, Species: HAMSTER, Strain/Sex: SYRIAN/FEMALE, Target Tissue: Type of Lesion: LIVER: HEPATOCELLULAR CARCINOMA, Dose [Carcinogen]: 20 MG/KG INJECTION GIVEN TWICE 1 WK APART, Promoter: NONE USED)","tumour outcome (control, treated, inhibition, significance) (Carcinogen: N-NITROSOBIS(2-OXOPROPYL)AMINE, 60599-38-4, Dose [Inhibitor]: 0.5 MMOL/KG OF DIET FOR 357 D STARTING 2 WK AFTER LAST CARCINOGEN DOSE AND INTERRUPTED BY A 1 WK REST PERIOD OF VEHICLE-, Species: HAMSTER, Strain/Sex: SYRIAN/FEMALE, Target Tissue: Type of Lesion: PANCREAS: CARCINOMA, Dose [Carcinogen]: 20 MG/KG INJECTION GIVEN TWICE 1 WK APART, Promoter: NONE USED)","tumour outcome (control, treated, inhibition, significance) (Carcinogen: N-NITROSOBIS(2-OXOPROPYL)AMINE, 60599-38-4, Dose [Inhibitor]: 0.5 MMOL/KG OF DIET FOR 357 D STARTING 2 WK AFTER LAST CARCINOGEN DOSE AND INTERRUPTED BY A 1 WK REST PERIOD OF VEHICLE-, Species: HAMSTER, Strain/Sex: SYRIAN/MALE, Target Tissue: Type of Lesion: LIVER: HEPATOCELLULAR CARCINOMA, Dose [Carcinogen]: 20 MG/KG INJECTION GIVEN TWICE 1 WK APART, Promoter: NONE USED)","tumour outcome (control, treated, inhibition, significance) (Carcinogen: N-NITROSOBIS(2-OXOPROPYL)AMINE, 60599-38-4, Dose [Inhibitor]: 0.5 MMOL/KG OF DIET FOR 357 D STARTING 2 WK AFTER LAST CARCINOGEN DOSE AND INTERRUPTED BY A 1 WK REST PERIOD OF VEHICLE-, Species: HAMSTER, Strain/Sex: SYRIAN/MALE, Target Tissue: Type of Lesion: PANCREAS: CARCINOMA, Dose [Carcinogen]: 20 MG/KG INJECTION GIVEN TWICE 1 WK APART, Promoter: NONE USED)"
CCOC(=O)/C=C\C(=O)OCC,"88%, 27%, 69%, p<0.01","20%, 5%, 75%, not calculated","5/15 (33%), 2/15 (13%), 61%, not significant","8/15 (53%), 10/15 (67%), -26%, not significant","9/15 (60%), 9/15 (60%), 0%, not significant","5/14 (36%), 0/14 (0%), 100%, p<0.05","14/14 (100%), 11/14 (79%), 21%, not calculated","1/14 (7%), 4/14 (29%), -314%, not calculated","14/14 (100%), 5/14 (36%), 64%, p<0.001",,,,,,,,,
CC1=C(/C=C/C(C)=C/C=C/C(C)=C/C(=O)NCCCO)C(C)(C)CCC1,,,,,,,,,,"31/55 (56%), 28/54 (51%), 9%, not significant","5%, 42%, -740%, not calculated","38%, 32%, 16%, not calculated","7%, 0%, 100%, not calculated","34%, 27%, 21%, not calculated","5%, 9%, -80%, not calculated","38%, 27%, 29%, not calculated","7%, 12%, -71%, not calculated","34%, 40%, -18%, not calculated"
